# Measurements as given in patent publication US20250170131A1, “METHOD FOR THE TREATMENT OF ANTERIOR ISCHEMIC OPTIC NEUROPATHY” (Nicox SA, priority 2022, published 2025).
# “Also recorded” adds a separate entry of the source.
# Experiments:
# [1] = system: ischemia/reperfusion injury of the optic nerve induced by the subtenon injection of endothelin-1 (ET-1) in rabbits; assay: Ophthalmic artery resistive index (OA-RI) by Echo Color Doppler, ET-1 ischemia/reperfusion model (Example 1); assay type: in vivo, New Zealand white (NZW) rabbits; details: for Ophthalmic artery resistive index (OA-RI), Baseline: prior to ET-1 dosing (time 0), before test item; for OA-RI, ET-1 (4-weeks) + Test items (2 weeks daily bid): week 4; for OA-RI, ET-1 (4-weeks) + Test items (2 weeks daily bid) / OA-RI, ET-1 (6 weeks) + Test items (4 weeks daily bid): 1% w/w, 30 microL/eye topical twice daily; for OA-RI, ET-1 (6 weeks) + Test items (4 weeks daily bid): week 6
# Experimental: (§1) These experiments were performed to determine the effects of [(2S)-1-(4-{[(3-chloro-4-methoxyphenyl)methyl]amino}-5-{[(pyrimidin-2yl)methyl]carbamoyl}pyrimidin-2-yl)pyrrolidin-2-yl]methyl 6-(nitrooxy)hexanoate (Compound (I)) on ocular vascular reactivity and retinal function after ocular topical dosing in a model of ischemia/reperfusion injury of the optic nerve induced by the subtenon injection of endothelin-1 (ET-1) in rabbits.
# (§2) Adult male New Zealand white (NZW) rabbits weighting 1.5-2.0 kg were used. All animals received a single 30 microL/eye topical dose of Compound (I) (1% w/w) or vehicle (Kolliphor® EL 5.0% w/w, Myrj™ S40 3.0% w/w, Kollisolv® PEG400 2.8% w/w, H3BO3 0.19% w/w, Na2HPO4·7H2O 0.51% w/w, EDTA 0.10% w/w, BAK 0.01% w/w, HCl 0.5N q.s. pH 6.6, purified water q.s. 100 g) twice daily for 4 consecutive weeks starting 2 weeks after Endothelin-1 (ET-1) first dosing.
# (§3) Ischemia/reperfusion injury was induced in each animal by subtenon injection (twice/week for 6 weeks) of 200 microL of 250 nM ET-1 dissolved in water using a lacrimal cannula under anaesthesia produced by ketamine and xylazine injected intramuscularly.
# Ophthalmic Artery Resistive Index (OA-RI) measurements were taken using an Echo Color Doppler prior to ET-1 treatment (baseline, time 0), and weekly thereafter till the end of the study. Pourcelot resistive index for ophthalmic artery (OA-RI) was calculated using the following formula: (OA-PSV−OA-EDV)/OA-PSV where OA-PSV and OA-EDV refer to Ophthalmic Artery Peak Systolic Velocity and Ophthalmic Artery End Diastolic Velocity, respectively.
# (§4) Measurements were taken prior to ET-1 first dose (baseline, time 0), then at the end of week 2 (prior to vehicle- or Compound (I) first day-first dose) and at the end of week 6.
# [2] = system: ischemia/reperfusion injury of the optic nerve induced by the subtenon injection of endothelin-1 (ET-1) in rabbits; assay: Electroretinogram (ERG) recording, ET-1 ischemia/reperfusion model (Example 1); assay type: in vivo, New Zealand white (NZW) rabbits
# Experimental: as §1, §2, §3
# Electroretinogram (ERGs) recording took place under topical anaesthesia. The eyes were also dilated by topical application of tropicamide 1% and, when needed, adapted to darkness for at least 2 hours prior to ERGs recording. ERGs recording were performed with standard contact lens corneal electrodes. Specifically, the dark-adapted 0.01 ERG (mostly rod response), dark-adapted 3.0 ERG (combined rod/cone response) and, light-adapted 3.0 (mostly cone response) were recorded.
# as §4
# [3] = system: endothelin-1 (ET-1)-induced ischemia/reperfusion injury of optic nerve head and retina; assay: OA-RI by Echo-Color-Doppler, Compound (I) vs des-nitro Compound (Ia) (Example 2); assay type: in vivo, rabbits; details: for OA-RI, ET-1 + treatment Week 3 / OA-RI, ET-1 + treatment Week 4 / OA-RI, ET-1 + treatment Week 5 / OA-RI, ET-1 + treatment Week 6: Cpd (I) 1.0% / Cpd (Ia) 0.93% (equimolar), topical twice daily from week 3; for OA-RI, ET-1 (1st dose) Week 2: ET-1 only, before treatment; for Effect on OA-RI / ocular perfusion (in words): ET-1 rabbit model, equimolar doses, weeks 3-6; for OA-RI, Baseline Week 0: before ET-1 and treatment
# Experimental: This study evaluated the ocular hemodynamic effects of repeated topical ocular dosing of Compound (I) in comparison to its des-nitro derivative Compound (Ia) administered at equimolar doses in rabbits with endothelin-1 (ET-1)-induced ischemia/reperfusion injury of optic nerve head and retina. Method: ET-1 was injected next to the optic nerve head twice/week for 6 weeks. Animals received Compound (I) (1% twice daily, 6 days/week), Compound (Ia) (0.93%, equimolar to 1% Compound (I)) or vehicle from week 3 until the end of ET-1 treatment. Functional endpoint was ophthalmic artery resistive index (OA-RI) determined using an Echo-Color-Doppler.
# [4] = system: blood flow nearby the optic nerve head and choroid; details: systemic dosing; British J Ophthalmology 83 (1999); cited from earlier work
Structure (SMILES),"Effect on OA-RI (in words) ([1]; ET-1 rabbit model, topical dosing)","OA-RI, ET-1 (2 weeks) ([1]; after 2 weeks ET-1 twice weekly, before first dose of test item, mean±SD)","Ophthalmic artery resistive index (OA-RI), Baseline ([1]; mean±SD)","Ophthalmic artery resistive index (OA-RI), Baseline ([1]; mean±SD, listed as Cpd (I))","OA-RI, ET-1 (4-weeks) + Test items (2 weeks daily bid) ([1]; mean±SD)","OA-RI, ET-1 (4-weeks) + Test items (2 weeks daily bid) ([1]; mean±SD, listed as Cpd (I))","OA-RI, ET-1 (6 weeks) + Test items (4 weeks daily bid) ([1]; mean±SD)","OA-RI, ET-1 (6 weeks) + Test items (4 weeks daily bid) ([1]; mean±SD, listed as Cpd (I))","Effect on retinal function / ERG (in words) ([2]; ET-1 rabbit model, 4 weeks topical dosing)","ERG Amplitude, ET-1 (6 weeks) + Test items (4 weeks daily bid) ([2]; Light adapted 3.0 (Rod/cone response), 1% w/w, 30 microL/eye topical bid, ± S.D.) [μV]","ERG Amplitude, ET-1 (2 weeks) ([2]; Light adapted 3.0 (Rod/cone response), before first dose of test item, ± S.D.) [μV]","ERG Amplitude, Baseline ([2]; Light adapted 3.0 (Rod/cone response), prior to ET-1, ± S.D.) [μV]","OA-RI, ET-1 + treatment Week 3 [3]","OA-RI, ET-1 + treatment Week 4 [3]","OA-RI, ET-1 + treatment Week 5 [3]","OA-RI, ET-1 + treatment Week 6 [3]","OA-RI, ET-1 (1st dose) Week 2 [3]",Effect on OA-RI / ocular perfusion (in words) [3],"OA-RI, Baseline Week 0 [3]",Effect on ocular blood flow (in words) [4]
"COc1ccc(CNc2nc(N3CCC[C@H]3COC(=O)CCCCCO[N+](=O)[O-])ncc2C(=O)NCc2ncccn2)cc1Cl [Compound (I), [(2S)-1-(4-{[(3-Chloro-4-methoxyphenyl)methyl]amino}-5-{[(pyrimidin-2-yl)methyl]carbamoyl}pyrimidin-2-yl)pyrrolidin-2-yl]methyl 6-(nitrooxy)hexanoate]",reduced ophthalmic artery resistive index (OA-RI),0.48 ± 0.06,0.40±0.08,0.40 ± 0.08,0.43±0.09,0.43 ± 0.09,0.43±0.04,0.43 ± 0.04,increased photoreceptor activity; also recorded: less impairment in the ERG wave amplitude than those treated with vehicle,131.6 ± 46.4,100.5 ± 33.3,115.9 ± 30.0,0.41 ± 0.01,0.37 ± 0.03,0.37 ± 0.03,0.39 ± 0.03,0.46 ± 0.02,restored baseline OA-RI by week 6; also recorded: ameliorates ocular perfusion,0.34 ± 0.02,–
"COc1ccc(CNc2nc(N3CCC[C@H]3COC(=O)CCCCCO)ncc2C(=O)NCc2ncccn2)cc1Cl [Compound (Ia), [(2S)-1-(4-{[(3-Chloro-4-methoxyphenyl)methyl]amino}-5-{[(pyrimidin-2-yl)methyl]carbamoyl}pyrimidin-2-yl)pyrrolidin-2-yl]methyl 6-hydroxyhexanoate, reference compound]",–,–,–,–,–,–,–,–,–,–,–,–,0.49 ± 0.00,0.47 ± 0.01,0.51+0.02,0.48 ± 0.07,0.51 ± 0.01,not effective; also recorded: only resulted in minor activity,0.34 ± 0.02,–
"O=[N+]([O-])O[C@@H]1CO[C@H]2[C@@H]1OC[C@@H]2O [ISMN, isosorbide mononitrate]",–,–,–,–,–,–,–,–,–,–,–,–,–,–,–,–,–,–,–,increases blood flow nearby optic nerve head without changes to the choroidal compartment
